Here are results for 2 molecules from patent US9670213B2, “Pteridine ketone derivative and applications thereof as EGFR, BLK, and FLT3 inhibitor” (EAST CHINA UNIVERSITY OF SCIENCE AND TECHNOLOGY, priority 2012, dated 2017).

The subject of assay [1] is H1975 (non-small cell lung cancer cells, EGFR L858R/T790M). The experiment in a line: Cell proliferation and growth inhibition analysis. Conditions: Homo sapiens, NCI-H1975, 72 hours, read-out: Inhibitory activity on cell proliferation (IC50, μM) H1975. The format is cell-based.
Assay [2] has as its system HCC827 (non-small cell lung cancer cells, EGFR del E746-A750). The experiment in a line: Cell proliferation and growth inhibition analysis. It counts as cell-based. The note with it: Homo sapiens, 72 hours, read-out: Inhibitory activity on cell proliferation (IC50, μM) HCC827.

Structures are written as SMILES.

In the case of `C=CC(=O)Nc1cccc(-n2c(=O)cnc3cnc(Nc4ccc(N5CCN(C)CC5)cc4)nc32)c1` [Compound 020, N-(3-(2-(4-(4-methyl-1-piperazinyl)-phenylamino)-7-oxo-8(7H)-pteridin-yl)phenyl) acrylamide], the figures for the IC50 in assay [1] and in assay [2] were 0.043 µM and 0.002 µM, respectively.
Regarding `C=CC(=O)Nc1cccc(-n2c(=O)cnc3cnc(Nc4ccc(N5CCN(C)CC5)cc4OC)nc32)c1` [Compound 032, N-(3-(2-(2-methoxy-4-(4-methyl-1-piperazinyl)-phenylamino)-7-oxo-8(7H)-pteridin-yl)phenyl)acrylamide], the IC50 in assay [1] worked out at 0.038 µM; in assay [2], 0.004 µM.
